# Results taken from patent US20090275667A1, “USE OF ALLICIN AS PRESERVATIVE, AS DISINFECTANT, AS ANTIMICROBIAL OR AS BIOCIDAL AGENT” (Stone Island Holdings Ltd, priority 2003, published 2009).
# Tests used:
# P. larvae subsp. larvae = test: Investigation into bacteriostatic or bactericidal effects (Study 2); type: cell-based, Paenibacillus larvae subsp. larvae; parameters: key to Growth in broth after exposure to test Item at concentration indicated: *: Growth present in one replicate only
# Method: (§1) Where there was no growth in a replicate, at the end of one week the culture was plated out for single colonies on the appropriate agar. This was to determine whether the test item had bactericidal activity, where all the bacterial cells are killed, or bacteriostatic action, where the cells are unable to replicate in the presence of the substance, but will grow when it is removed. A further test, where 0.5 ml of the broth was transferred into 4.5 ml fresh broth (giving a 1:10 dilution) was also undertaken. There would still be some Allicin in the broth, but it should be present at a low enough concentration for growth not to be affected. Where growth occurred in the absence of Allicin, the broth was examined microscopically and plated out for single colonies to confirm the identity of the bacterium.
# Ent. Hirae = test: Agar inhibition test; type: cell-based, Enterococcus hirae; conditions: equivalent to 0.0225% w/v
# P. alvei = test: Investigation into bacteriostatic or bactericidal effects (Study 2); type: cell-based, Paenibacillus alvei; conditions: conclusion from subculture into fresh media
# Method: as §1
# [1] = system: methicillin resistant Staphylococcus aureus (MRSA); conditions: certain species of MRSA; earlier application WO03/024437; cited from earlier work
# [2] = system: GISA strain isolated from the UK mortality; test: Standard agar diffusion test against a GISA strain; type: cell-based, Staphylococcus aureus
# Source text: Allicin in a liquid form has been tested against the GISA strain isolated from the UK mortality. In a standard agar diffusion test the strain produced a zone of 37 mm at 500 ppm (FIG. 2) and 30 mm at 300 ppm.
# chickens = test: In vivo trial of allicin in the drinking water of chickens, two sheds
# Method: An in vivo trial has also been conducted in which two adjacent sheds each of 10,000 chickens were compared. Each shed was supplied with 1000 litres of water per day. For 7 days, the water for one shed had 1.5 litres of allicin solution (1000 ppm) added to the water supply, with 1 litre of allicin solution (1000 ppm) being added per day for a further 3 days. In the control shed, no allicin solution was added.
# After just a few days, an improvement in the appearance of the health of the chickens in the allicin-treated shed was noted. For example, the combs of the chickens appeared redder and there was an increase of 2 percent in egg production. The vitality of the chickens improved. In contrast, in the control barn, E. coli infection was observed. Following completion of the trial, the livers of several of the birds were examined.
# [3] = system: Escherichia coli (NCTC 8156); test: Modified Kelsey-Sykes test; type: cell-based; parameters: key: CG = Confluent growth
# Source text: Allicin can be used to displace or supplement existing harmful forms of disinfectant/biocide such as chlorine, sodium hypochlorite, ozone and per-acetic acid all of which can have an adverse effect on the environment. UV radiation is also used for disinfection but power and general running costs are high. Laboratory studies have been conducted on our behalf using allicin on aqueous suspensions of bacterial species commonly used as indicators of the effectiveness of water and wastewater disinfection. To this effect, identified isolates from the faecal coliform and streptococcus groups, namely, Escherichia coli (NCTC 8156) and Enterococcus hirae (University of Brighton isolate) were used in all experiments. An aqueous solution of allicin with a nominal concentration of allicin of 1.8 g per litre ie a 0.18% solution was used.
# Stock suspensions of Escherichia coli (NCTC 8156) and Enterococcus hirae (University of Brighton isolate) were cultivated in Nutrient Broth No. 2 from freeze dried isolates. Prior to each experiment, serial dilutions of the suspensions were enumerated by the spread plate method on Nutrient Agar and subsequent incubation at 37 deg C.
# Initial experimental procedures were based on the methods set out in an established UK protocol (BS 6905: 1987). The Kelsy-Sykes methodology was developed as a guide to the concentrations of disinfectants which may be recommended for use under “dirty” (wastewater/sewage) conditions. It is therefore a suitable means of establishing the effectiveness of a disinfectant against a wastewater containing particulate and dissolved contaminants in addition to micro-organisms.
# Therefore, with regard to wastewater/sewage considerations, the protocol was adapted. Under the revised methodology, a sample was taken from the bacterial suspension/biocide mix after the prescribed contact time and plated out onto solid media so that a colony count could be made (see Tables 1 and 2).
# P. l. pulvifaciens = test: Minimum bactericidal concentration by plating out MIC cultures; type: cell-based, Paenibacillus larvae subsp. pulvifaciens; conditions: range of 1000 ppm to 25 ppm
# Method: (§2) Positive controls contained the antibiotic Tylosin (Tylan® 50, Elanco Animal Health Inc., IN) and negative controls contained no antibiotics. Bacterial (P. l. larvae, P. l. pulviphaciens) or fungal (A. apis, A. aggregata) spores (100 μl of approximately 10^8-10^9 spores/ml) were added to a 2.5 ml of bacterial or fungal liquid medium containing serial dilutions of allicin. Cultures were incubated in a shaker at 35° C. and 215 rpm. The optical densities of cultures (OD 600) were recorded 24 h and 48 h post inoculation, depending on the growth rate of the microbial species. […] Minimum bactericidal concentration values (NBC) were determined for allicin by plating out 100 μl of bacterial cultures derived from the MIC assay. Plates were incubated 24 h and 48 h at 33° C. and 6% CO2 to observe microbial growth.
# P. l. larvae = test: as above; type: cell-based, Paenibacillus larvae subsp. larvae; conditions: range of 1000 ppm to 25 ppm
# Method: as §2
# [4] = allicin conc. 0.9 % (w/v), 10 mins
# [5] = allicin conc. 0.9 % (w/v), 20 mins
# [6] = allicin conc. 0.9 % (w/v), 30 mins
# [7] = allicin conc. 1.08 % (w/v), 10 mins
# [8] = allicin conc. 1.08 % (w/v), 20 mins
# [9] = allicin conc. 1.26 % (w/v), 10 mins
# [10] = allicin conc. 1.26 % (w/v), 20 mins
# [11] = allicin conc. 1.62 % (w/v), 10 mins
# [12] = allicin conc. 1.62 % (w/v), 20 mins
compound,measurement,setting,value
"C=CCS[S+]([O-])CC=C (stereo not drawn) [allicin, Allicin]",Growth in broth after exposure to test Item at concentration indicated,"P. larvae subsp. larvae; 50 ppm, 10% inoculum transferred to fresh broth",*
same,bacteriostatic or bactericidal effect,P. larvae subsp. larvae; conclusion from subculture after exposure,a bactericidal effect appeared to be observed
same,allicin concentration at which inhibition was demonstrated on agar plates,Ent. Hirae,≤ 0.225 g/L
same,bacteriostatic or bactericidal effect,P. alvei,did not kill all bacteria
same,susceptibility of MRSA to allicin,[1],exceptionally susceptible
same,zone of inhibition at 300 ppm,"[2]; Staphylococcus aureus, 300 ppm, allicin in a liquid form",30 mm
same,zone of inhibition at 500 ppm,"[2]; Staphylococcus aureus, 500 ppm, allicin in a liquid form",37 mm
same,susceptibility of the GISA strain,[2]; recommended doses for topical use,fully susceptible
same,increase in egg production,"chickens; allicin solution (1000 ppm) 1.5 litres/day in 1000 litres water for 7 days, then 1 litre/day for 3 days, vs control shed",2%
same,resistance to chicken bloodlice,chickens; allicin-treated shed vs control shed,improved resistance
same,evidence of E. coli infection in livers,"chickens; livers examined after completion of the trial, vs control chickens",did not
same,Numbers of colony forming units killed,[3]; [4],CG
same,Percentage reduction in colony forming units,[3]; [4],CG
same,Numbers of colony forming units killed,[3]; [5],CG
same,Percentage reduction in colony forming units,[3]; [5],CG
same,Numbers of colony forming units killed,[3]; [6],CG
same,Percentage reduction in colony forming units,[3]; [6],CG
same,Numbers of colony forming units killed,[3]; [7],CG
same,Percentage reduction in colony forming units,[3]; [7],CG
same,Numbers of colony forming units killed,[3]; [8],CG
same,Percentage reduction in colony forming units,[3]; [8],CG
same,Percentage reduction in colony forming units,"[3]; allicin conc. 1.08 % (w/v), 30 mins",94%
same,Numbers of colony forming units killed,[3]; [9],CG
same,Percentage reduction in colony forming units,[3]; [9],CG
same,Numbers of colony forming units killed,[3]; [10],CG
same,Percentage reduction in colony forming units,[3]; [10],CG
same,Percentage reduction in colony forming units,"[3]; allicin conc. 1.26 % (w/v), 30 mins",97%
same,Percentage reduction in colony forming units,"[3]; allicin conc. 1.4 % (w/v), 10 mins",CG
same,Percentage reduction in colony forming units,"[3]; allicin conc. 1.4 % (w/v), 20 mins",CG
same,Percentage reduction in colony forming units,"[3]; allicin conc. 1.4 % (w/v), 30 mins",89%
same,Numbers of colony forming units killed,"[3]; allicin conc. 1.44 % (w/v), 10 mins",CG
same,Numbers of colony forming units killed,"[3]; allicin conc. 1.44 % (w/v), 20 mins",CG
same,Numbers of colony forming units killed,[3]; [11],CG
same,Percentage reduction in colony forming units,[3]; [11],CG
same,Numbers of colony forming units killed,[3]; [12],CG
same,Percentage reduction in colony forming units,[3]; [12],CG
same,Percentage reduction in colony forming units,"[3]; allicin conc. 1.62 % (w/v), 30 mins",83%
same,bacteriostatic or bactericidal activity,P. l. pulvifaciens,only bacteriostatic (no bactericidal) activity
same,bacteriostatic or bactericidal activity,P. l. larvae,only bacteriostatic (no bactericidal) activity
